Source: US12582635B2, “Compositions and methods for treating cancer with atypical BRAF mutations” (BIOMED VALLEY DISCOVERIES, INC., priority 2017, dated 2026)
Where two headings read alike, the source gives them in different places.

What was measured:
ERK1/2 [1] = details: Morris et al., 2013; cited from earlier work
ERK1/2 [2] = experiment: autophosphorylation of ERK (mechanism of action of ERK1/2 inhibitors); format: biochemical; details: stated in the description, no test described
[3] = test system: cancers harboring atypical (non-V600E/K) BRAF mutations; experiment: solid tumor Phase 1b trial of BVD-523, tumor response by RECIST v1.1 and duration of treatment; format: in vivo, human; details: for duration of treatment: single patient
Method: The waterfall plot depicted in FIG. 2 provides an illustration of human clinical trial patient information showing each individual patient's response to treatment with BVD-523, as measured by % change in tumor burden. Patients generally received 600 mg, twice daily (BID), with some patients receiving a deescalated dose of 300 mg-400 mg BID if side effects were not manageable with other palliative medication. […] The horizontal axis across the plot serves as a baseline measurement for each patient. The vertical axis is a measure of the maximum percentage change from baseline; i.e., percent growth or reduction of tumor burden by radiologic measurement according to RECIST v1.1. Radiologic measurement comprised computed tomography (CT) scan and, rarely, magnetic resonance imaging (MRI). The tumor burden data represented by FIG. 2 is arranged from the worst value (i.e. greatest progression of tumor burden) on the left side of the plot to the best value (i.e., greatest reduction of tumor burden) on the right side of the plot. RECIST v1.1 response criteria for measured target lesions have been described previously. (See Eisenhauer, E. A., et al., New response evaluation criteria in solid tumours: Revised RECIST guideline (version 1.1), European J. of Cancer 45, 228-247 (2009), incorporated by reference herein in its entirety). […] Members of Group 1 are any patients with any BRAF mutation in any tumor type other than colorectal cancer (CRC) and non-small cell lung carcinoma (NSCLC), and that have not been previously treated with a MAPK pathway inhibitor. The members of Group 2 are patients with any BRAF mutation in CRC that have not been previously treated with a MAPK pathway inhibitor. The members of Group 3 are patients having a tumor with a BRAF […] mutation that is refractory to MAPK inhibitor treatment. The members of Group 6 are patients with any BRAF mutation present in NSCLC. […] The duration of treatment for each subject in each group is illustrated from the top (longest treatment duration) to bottom (least treatment duration) of the groups. The horizontal axis represents the duration, in days, that the patient was on the study. […] All 28 patients measured for RECIST v1.1 response criteria are included, plus additional patients not evaluated by RECIST v1.1 (diamond=partial response; circle=stable disease: vertical bar=progressive disease; triangle=not evaluated). The mean duration of BVD-523 treatment before discontinuation for tumors harboring the same BRAF mutation was: […], 73.6 days; […], 208.14 days: […], 50.25 days: […], 73.3 days; […], 63.5 days. For single patient representatives of specific BRAF mutations, the duration of treatment was: […], 304 days: […], 84 days: […], 77 days: BRAF fusion, 65 days: BRAF-AGAP3 rearrangement, 43 days: BRAF exon 15 splice variant, 15 days. By genomic screening of cancer patients for BRAF mutation and treating them prior to full in vitro characterization of those mutations (as a driver mutation), BVD-523 is shown to be useful to interrogate and discover efficacious treatment options for patients carrying mutations in BRAF. The clinical population of patients and the efficacy is not defined primarily by tumor type, but rather mutational status of enzymes such as BRAF, upstream of ERK 1/2 kinase activation.

[4] = 28 evaluable patients, RECIST v1.1, generally 600 mg BID

Structure (SMILES) | effect on autophosphorylation of ERK (ERK1/2 [1]) | effect on autophosphorylation of ERK (ERK1/2 [2]) | number of patients with partial response (PR) [3, 4] | number of patients with progressive disease at first evaluation [3, 4] | number of patients with stable disease [3, 4] [patients] | patients with partial response or stable disease ([3]; patients with atypical (non-V600E/K) BRAF mutations, RECIST v1.1) | duration of treatment ([3]; BRAF F247L) [days] | duration of treatment ([3]; BRAF G466V) [days] | duration of treatment ([3]; BRAF L485W) [days] | duration of treatment ([3]; BRAF exon 15 splice variant) [days] | duration of treatment ([3]; BRAF fusion) [days] | duration of treatment ([3]; BRAF-AGAP3 rearrangement) [days] | mean duration of treatment before discontinuation ([3]; tumors harboring BRAF D594) [days] | mean duration of treatment before discontinuation ([3]; tumors harboring BRAF G469) [days] | mean duration of treatment before discontinuation ([3]; tumors harboring BRAF K601E) [days] | mean duration of treatment before discontinuation ([3]; tumors harboring BRAF L597) [days] | mean duration of treatment before discontinuation ([3]; tumors harboring BRAF T599 Dup) [days]
O=C(Nc1ccc2[nH]nc(-c3ccncc3)c2c1)[C@@H]1CCN(CC(=O)N2CCN(c3ccc(-c4ncccn4)cc3)CC2)C1 [SCH772984] | inhibit autophosphorylation of ERK |  |  |  |  |  |  |  |  |  |  |  |  |  |  |  | 
CC(C)Nc1cc(-c2c[nH]c(C(=O)N[C@H](CO)c3cccc(Cl)c3)c2)c(Cl)cn1 [BVD-523] |  | allows for the autophosphorylation of ERK while still inhibiting ERK | Five | Three | 19 | 24 out of 28 | 84 | 77 | 304 | 15 | 65 | 43 | 73.6 | 208.14 | 50.25 | 73.3 | 63.5
